Values quoted from earlier work, collected in patent US20250222024A1, “METHOD AND COMPOSITION FOR TREATING CORONA VIRUS, INFLUENZA, AND ACUTE RESPIRATORY DISTRESS SYNDROME” (ReversPAH LLC, priority 2020, published 2025).

Columns and labels:
[1] = system: monocrotaline-induced pulmonary hypertension; details: through the bone morphogenetic protein signaling pathway
[2] = system: silica-induced lung inflammation and fibrosis; details: by inhibiting T-helper 17 cell (TH 17)
[3] = system: carrageenan-induced lung injury; details: for TNF-alpha levels in the lung / nitrite and nitrate levels (stable NO metabolites) in pleural exudates: 4 hours after carrageenan administration, versus CAR group, n=8 mice; for TNF-alpha levels in the lung: FIG. 10(a); for nitrite and nitrate levels (stable NO metabolites) in pleural exudates: FIG. 10(b)
[4] = system: Sugen/hypoxia-induced PAH; details: rat
[5] = system: SARS-CoV-2; details: in vitro

## O=C(O)[C@H]1O[C@@H](Oc2cc3oc(-c4ccccc4)cc(=O)c3c(O)c2O)[C@H](O)[C@@H](O)[C@@H]1O [Baicalin]
[1]
  monocrotaline-induced pulmonary hypertension: attenuate monocrotaline-induced pulmonary hypertension
[2]
  silica-induced lung inflammation and fibrosis: alleviate silica-induced lung inflammation and fibrosis

## CCN(CC)C(=O)N1CCN(C)CC1 [DEC, Diethylcarbamazine]
[3]
  TNF-alpha levels in the lung: significantly reduced the TNF-alpha levels
  nitrite and nitrate levels (stable NO metabolites) in pleural exudates: significantly reduced the nitrite and nitrate level
[3]; mouse acute lung injury model, DEC pretreatment, FIG. 9
  neutrophil infiltration into the lung (myeloperoxidase marker): significantly inhibited neutrophil infiltration

## COc1ccc2c(c1)c(CC(=O)O)c(C)n2C(=O)c1ccc(Cl)cc1 [INDO]
[3]
  TNF-alpha levels in the lung: did not reduce the TNF-alpha level
  nitrite and nitrate levels (stable NO metabolites) in pleural exudates: significantly reduced the nitrite and nitrate level

## S=C(S)N1CCCC1 [pyrrolidine dithiocarbamate]
[4]
  reversal of established angio-obliterative PAH: reverse established angio-obliterative PAH

## Ivermectin
[5]
  replication of SARS-CoV-2: inhibits the replication of SARS-CoV-2 in vitro
